{"source": "patent US9314485B2", "about": "“Use of PI3K M-TOR and AKT inhibitors to induce FOXP3 expression and generate regulatory T cells” (Medical Research Council, priority 2006, dated 2016)", "test_system": "S6 ribosomal protein", "assay": "S6 ribosomal protein phosphorylation (pS6) by intracellular staining/immunoblot", "format": "cell-based, mouse", "settings": "18 h activated cells; rapamycin 25 nM, Ly294002 10 g/ml as printed; within one hour", "procedure": "Mouse strains, cell sorting and culture Animal work was carried out according the Animals (Scientific Procedures) Act, UK. Lymph node (LN) cells were stained, analysed and sorted by flow cytometry as described (Cobb et al 2005 J. Exp. Med. 201: 1367-1373). Intracellular staining for Foxp3 protein was done as advised by the manufacturers (eBiosciences.com). The phosphorylation syatus of S6 ribosomal protein was determined using anti pS6 Ser235/236 (Cellsignaling cat.no. 2211, http://www.cellsignal.com) using the eBioscience Foxp3 staining kit and anti rabbit IgG-FITC or IgG-Cy5 (Jackson Immunoresearch). […] CD4 T cell CFSE profiles were recorded between 48 and 72 hours later.\nTo monitor the activity of the PI3K/mTOR axis in response to TCR signaling, TCR signal withdrawal and treatment with rapamycin and Ly294002, we analysed the level of phosphorylated S6 ribosomal protein (pS6), the target of p70 S6 kinase, which is directly regulated by mTOR. […]\nMice, Cell Sorting and Culture. […] Lymph node (LN) cells or thymocytes from wild type were stained, analysed and sorted by flow cytometry as described (Thompson et al., 2007 Immunity VoI 26 pp 335-344) from wild type (C57BL/6, BALB/c or C57BL/6×129) mice or from Rag1 deficient H2^b AND TCR transgenic mice. […] CD4 T cell CFSE profiles were recorded between 48 and 72 hours later."}
{"substance": "TGFβ", "values": [{"measurement": "S6 phosphorylation (pS6)", "result": "reduced pS6"}]}
